Source: ChEMBL document CHEMBL1135177 (Bioorg Med Chem Lett, 2002)

Key:
Format in all cases: cell-based
[1] = biological target: T1, Muscarinic acetylcholine receptor M2 (Homo sapiens, UniProt P08172); experiment: Binding affinity against human muscarine receptor (hM2) cloned in CHO cells
T1 sequence (P08172 whole entry): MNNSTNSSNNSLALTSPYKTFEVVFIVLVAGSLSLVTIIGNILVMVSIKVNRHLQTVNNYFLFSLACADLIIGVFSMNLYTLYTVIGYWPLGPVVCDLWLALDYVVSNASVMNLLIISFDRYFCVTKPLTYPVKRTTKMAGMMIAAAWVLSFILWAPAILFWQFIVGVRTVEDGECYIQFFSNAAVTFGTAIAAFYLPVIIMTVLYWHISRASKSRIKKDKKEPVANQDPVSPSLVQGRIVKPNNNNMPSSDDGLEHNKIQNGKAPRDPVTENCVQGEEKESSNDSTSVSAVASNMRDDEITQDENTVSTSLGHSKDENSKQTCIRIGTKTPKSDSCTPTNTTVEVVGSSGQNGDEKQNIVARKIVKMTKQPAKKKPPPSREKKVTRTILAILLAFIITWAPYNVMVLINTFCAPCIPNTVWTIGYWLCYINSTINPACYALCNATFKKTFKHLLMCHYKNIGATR

[2] = biological target: T2, Muscarinic acetylcholine receptor M1 (Homo sapiens, UniProt P11229); experiment: Binding affinity against human muscarine receptor (hM1) cloned in CHO cells
T2 sequence (P11229 whole entry): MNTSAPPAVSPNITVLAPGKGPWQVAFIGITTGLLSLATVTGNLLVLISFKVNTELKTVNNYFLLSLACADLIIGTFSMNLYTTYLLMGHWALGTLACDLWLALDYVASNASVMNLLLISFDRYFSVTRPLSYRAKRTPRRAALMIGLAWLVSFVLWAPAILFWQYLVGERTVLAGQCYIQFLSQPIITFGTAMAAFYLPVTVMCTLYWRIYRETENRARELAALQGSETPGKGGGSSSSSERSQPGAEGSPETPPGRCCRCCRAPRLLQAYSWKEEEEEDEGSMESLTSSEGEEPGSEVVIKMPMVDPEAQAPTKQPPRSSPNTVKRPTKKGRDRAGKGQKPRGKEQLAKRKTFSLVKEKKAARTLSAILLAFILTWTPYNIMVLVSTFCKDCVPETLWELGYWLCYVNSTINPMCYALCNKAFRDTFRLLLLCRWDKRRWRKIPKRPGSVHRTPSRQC

[3] = biological target: T3, Muscarinic acetylcholine receptor M4 (Homo sapiens, UniProt P08173); experiment: Binding affinity against human muscarine receptor (hM4) cloned in CHO cells
T3 sequence (P08173 whole entry): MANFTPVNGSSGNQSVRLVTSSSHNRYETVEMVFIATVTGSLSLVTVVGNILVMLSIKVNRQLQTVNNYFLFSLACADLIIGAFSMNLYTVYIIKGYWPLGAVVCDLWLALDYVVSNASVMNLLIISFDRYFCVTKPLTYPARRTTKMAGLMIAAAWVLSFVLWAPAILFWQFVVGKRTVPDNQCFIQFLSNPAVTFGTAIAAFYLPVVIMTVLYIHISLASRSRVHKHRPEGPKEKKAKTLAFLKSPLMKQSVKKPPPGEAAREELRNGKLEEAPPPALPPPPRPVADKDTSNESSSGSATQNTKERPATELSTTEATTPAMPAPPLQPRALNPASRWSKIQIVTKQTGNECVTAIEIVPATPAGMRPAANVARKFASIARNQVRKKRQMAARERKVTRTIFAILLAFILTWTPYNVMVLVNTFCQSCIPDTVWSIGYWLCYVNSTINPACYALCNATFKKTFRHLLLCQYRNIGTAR

[4] = biological target: Muscarinic acetylcholine receptor M3 (Homo sapiens, UniProt P20309); experiment: Binding affinity against human muscarine receptor (hM3) cloned in CHO cells
Muscarinic acetylcholine receptor M3, sequence (P20309 whole entry): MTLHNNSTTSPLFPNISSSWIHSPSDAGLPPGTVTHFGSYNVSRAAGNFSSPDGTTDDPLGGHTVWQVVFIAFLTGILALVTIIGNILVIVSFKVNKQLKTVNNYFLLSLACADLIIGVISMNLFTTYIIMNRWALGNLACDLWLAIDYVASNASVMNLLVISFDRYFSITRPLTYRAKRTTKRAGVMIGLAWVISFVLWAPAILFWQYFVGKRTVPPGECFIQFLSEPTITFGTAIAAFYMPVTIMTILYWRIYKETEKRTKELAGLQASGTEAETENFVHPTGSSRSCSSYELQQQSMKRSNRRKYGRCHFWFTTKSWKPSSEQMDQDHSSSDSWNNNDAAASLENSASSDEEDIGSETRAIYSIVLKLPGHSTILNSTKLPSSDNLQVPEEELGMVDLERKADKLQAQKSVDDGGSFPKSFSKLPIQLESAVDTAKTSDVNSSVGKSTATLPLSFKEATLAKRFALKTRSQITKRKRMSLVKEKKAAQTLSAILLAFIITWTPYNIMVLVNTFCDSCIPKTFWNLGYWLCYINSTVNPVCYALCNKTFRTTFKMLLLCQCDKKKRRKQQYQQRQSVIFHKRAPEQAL

| Structure (SMILES) | Ki [1] [nM] | Ki [2] [nM] | Ki [3] [nM] | Ki [4] [nM] |
| --- | --- | --- | --- | --- |
| C[C@@H]1OC(=O)[C@H]2C[C@H]3CCCC[C@H]3[C@H](C#C[C@H]3CCC[C@H](C)N3C)[C@@H]12 | 1150 | 5370 | 1740 | 5010 |
| C[C@@H]1OC(=O)[C@H]2C[C@H]3CCCC[C@@H]3[C@@H](C#C[C@H]3CCC[C@H](C)N3C)[C@@H]12 | 309 | 3240 | 891 | 3310 |
| C[C@@H]1OC(=O)[C@@H]2C[C@@H]3CCCC[C@@H]3[C@@H](/C=C/[C@H]3CCC[C@H](C)N3C)[C@H]12 | 95.5 | 427 | – | – |
| C[C@@H]1OC(=O)[C@@H]2C[C@@H]3CCCC[C@@H]3[C@@H](C#C[C@H]3CCC[C@H](C)N3C)[C@H]12 | 1170 | 3240 | 1950 | 11000 |
| C[C@@H]1OC(=O)[C@H]2C[C@H]3CCCC[C@@H]3[C@@H](/C=C\[C@H]3CCC[C@H](C)N3C)[C@@H]12 | 1740 | 1510 | – | – |
| C[C@@H]1OC(=O)[C@@H]2C[C@@H]3CCCC[C@@H]3[C@@H](/C=C\[C@H]3CCC[C@H](C)N3C)[C@H]12 | 676 | 2340 | – | – |
| C[C@@H]1OC(=O)[C@H]2C[C@H]3CCCC[C@H]3[C@H](/C=C/[C@H]3CCC[C@H](C)N3C)[C@@H]12 | 170 | 1740 | – | – |
| C[C@@H]1OC(=O)[C@H]2C[C@H]3CCCC[C@H]3[C@H](/C=C\[C@H]3CCC[C@H](C)N3C)[C@@H]12 | 851 | 2570 | – | – |
| C[C@@H]1OC(=O)[C@H]2C[C@H]3CCCC[C@@H]3[C@@H](/C=C/[C@H]3CCC[C@H](C)N3C)[C@@H]12 [HIMBACINE] | 4.68 | 158 | – | – |
